This note sets out measurements from ChEMBL document CHEMBL1133022, “Predicting blood-brain barrier permeation from three-dimensional molecular structure” (J Med Chem, 2000).

The first series is filed under the species Mus musculus. The series can be described thus: BBB penetration classification.
Conditions: not given
Turning to `C[C@H](CN1c2ccccc2Sc2ccccc21)N(C)C`, the Permeability result is “Permeable”.

`CCC(NC(=O)c1c(C)c(-c2ccccc2)nc2ccccc12)c1ccccc1` (stereo unspecified): the Permeability result was “Permeable”.

`CC(C)(C)c1ccc([C@@H](O)CCCN2CCC(C(O)(c3ccccc3)c3ccccc3)CC2)cc1`: the Permeability result is “Impermeable”.

For `O=C(Cc1ccc(Cl)c(Cl)c1)N1CCc2occc2[C@H]1CN1CC[C@H](O)C1`, the Permeability result was “Permeable”.

As to `O=C(Cc1ccc(Cl)c(Cl)c1)N1CCCC[C@H]1CN1CCCC1`, the Permeability result is given as “Permeable”.

As to `O=C(Cc1ccc(Cl)c(Cl)c1)N1CCc2occc2[C@H]1CN1CC[C@@H](O)C1` (mixture of isomers), the Permeability entry is “Permeable”.

Turning to `O=C(Cc1ccc(Cl)c(Cl)c1)N1CCc2occc2[C@@H]1CN1CC[C@H](O)C1` (racemic), the Permeability entry is on record as “Permeable”.

With `C[C@@H](CN1c2ccccc2Sc2ccccc21)N(C)C` [(S)-PROMETHAZINE], the Permeability entry is “Permeable”.

Take `COc1ccc(CCN2CCC(Nc3nc4ccccc4n3Cc3ccc(F)cc3)CC2)cc1` [ASTEMIZOLE]: the Permeability result is recorded as “Impermeable”.

With `Cn1c(=O)c2c(ncn2C)n(C)c1=O` [CAFFEINE], the Permeability result was “Permeable”.

For the compound `CN(C)CCCN1c2ccccc2Sc2ccc(Cl)cc21` [CHLORPROMAZINE], the Permeability entry is on record as “Permeable”.

For the compound `CN/C(=N/CCSCc1nc[nH]c1C)NC#N` [CIMETIDINE], the Permeability entry is given as “Impermeable”.

For `Clc1cccc(Cl)c1N=C1NCCN1` [CLONIDINE], the Permeability result was “Permeable”.

Take `CNCCCN1c2ccccc2CCc2ccccc21` [DESIPRAMINE]: the Permeability entry is “Permeable”.

In the case of `O=c1[nH]c2ccccc2n1CCCN1CCC(n2c(=O)[nH]c3cc(Cl)ccc32)CC1` [DOMPERIDONE], the Permeability result is recorded as “Impermeable”.

For `NCCc1ccc(O)c(O)c1` [DOPAMINE], the Permeability result was “Impermeable”.

In the case of `CC(C)(C)c1ccc(C(=O)CCCN2CCC(OC(c3ccccc3)c3ccccc3)CC2)cc1` [EBASTINE], the Permeability result is listed as “Impermeable”.

`C[C@]12CC[C@@H]3c4ccc(O)cc4CC[C@H]3[C@@H]1CC[C@@H]2O` [ESTRADIOL]: the Permeability result was “Permeable”.

In the case of `O=C1CC[C@@]2(O)[C@H]3Cc4ccc(O)c5c4[C@@]2(CCN3CC2CC2)[C@H]1O5` [NALTREXONE], the Permeability entry was “Permeable”.

`CCn1cc(C(=O)O)c(=O)c2cc(F)c(N3CCNCC3)cc21` [NORFLOXACIN]: the Permeability result was “Impermeable”.

For `OCCN1CCN(CCCN2c3ccccc3Sc3ccc(Cl)cc32)CC1` [PERPHENAZINE], the Permeability result is reported as “Permeable”.

In the case of `CC(C)(C)c1ccc([C@H](O)CCCN2CCC(C(O)(c3ccccc3)c3ccccc3)CC2)cc1` [R-TERFENADINE], the Permeability result is “Impermeable”.

As for `CNC(=C[N+](=O)[O-])NCCSCc1ccc(CN(C)C)o1` [RANITIDINE], the Permeability entry is recorded as “Impermeable”.

As for `CCCC(C)C1(CC)C(=O)NC(=S)NC1=O` (stereo unspecified) [THIOPENTAL], the Permeability entry is given as “Permeable”.

Consider `CSc1ccc2c(c1)N(CCC1CCCCN1C)c1ccccc1S2` (stereo unspecified) [THIORIDAZINE], for which the Permeability result is on record as “Permeable”.

Still in this series, the particulars now being: in vivo.
For the compound `N[C@@H](Cc1ccc(O)c(O)c1)C(=O)O` [LEVODOPA], the “BBB Impermeable” value is “Impermeable”.
